According to patent US9498483B2, “2,3,5-trisubstituted thiophene compounds and uses thereof” (priority 2010, dated 2016):

How the values were obtained:
HCV polymerase = molecular target: T1, HCV polymerase (Hepatitis C virus genotype 1b, UniProt Q9WMX2); assay: Polymerase assay of Biological Example 1 (IC50 values of Table 3); type: biochemical; details: IC50 values of Table 3, polymerase assay of Biological Example 1; read-out: NS5B-enzyme3
T1 construct: (His)6 (C); made in house; host or cells: XL-1 cells (E. coli, by own knowledge)

[1] = tested on: HCV replicon I389luc-ubi-neo/NS3-3′/ET in ET (Huh-lucubineo-ET) cells; assay: Replicon assay (Biological Example 2), luciferase readout; type: cell-based; details: Hepatitis C virus
Method in brief: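 EC50 values come from Hill fits of % inhibition of replicon-driven firefly luciferase, relative to no-compound wells. Compounds were serially diluted (10 points, 3-fold, 0.1 nM–50 μM final, 0.5% DMSO) onto ET replicon cells and read after 48 h.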

[2] = ET cells, luciferase activity 48 hours after compound

Row | Compound | IC50 (HCV polymerase) [nM] | IC50 [1, 2] [nM] | IC50 ([1]; between 100 nM and 5.0 uM) [nM]
1 | O=C(O)c1sc(-c2ccccc2)cc1N1C(=O)CN(S(=O)(=O)c2ccc(NC3CCCC3)nc2)CC1C1CCCCC1 (stereo not shown) [Compound 82, 3-[2-Cyclohexyl-4-(6-cyclopentylamino-pyridine-3-sulfonyl)-6-oxo-piperazin-1-yl]-5-phenyl-thiophene-2-carboxylic acid] | 6 | ≤ 100 | 
2 | O=C(O)c1sc(-c2ccccc2)cc1N1C(=O)CN(S(=O)(=O)c2ccc(-n3cccn3)cc2)CC1C1CCCCC1 (stereo not shown) [Compound 101, 3-[2-Cyclohexyl-6-oxo-4-(4-pyrazol-1-yl-benzenesulfonyl)-piperazin-1-yl]-5-phenyl-thiophene-2-carboxylic acid] | 11 |  | 100 to 5000
3 | COC[C@@H]1CCCN1c1ccc(S(=O)(=O)N2CC(=O)N(c3cc(-c4ccccc4)sc3C(=O)O)[C@H](C3CCCCC3)C2)cn1 [Compound 171, 3-{(R)-2-Cyclohexyl-4-[6-((S)-2-methoxymethyl-pyrrolidin-1-yl)-pyridine-3-sulfonyl]-6-oxo-piperazin-1-yl}-5-phenyl-thiophene-2-carboxylic acid] | 2 | ≤ 100 | 
4 | O=C(O)c1sc(-c2ccccc2)cc1N1C(=O)CN(S(=O)(=O)c2ccc(N3CC[C@@H](F)C3)nc2)CC1C1CCCCC1 (stereo partly drawn) [Compound 120, 3-{2-Cyclohexyl-4-[6-((R)-3-fluoro-pyrrolidin-1-yl)-pyridine-3-sulfonyl]-6-oxo-piperazin-1-yl}-5-phenyl-thiophene-2-carboxylic acid] | 6 | ≤ 100 | 
5 | CC(C)(C)C#Cc1cc(N2C(=O)[C@@H](CCO)OC[C@H]2C2CCCCC2)c(C(=O)O)s1 [Compound 8, 3-[(2R,5R)-5-Cyclohexyl-2-(2-hydroxy-ethyl)-3-oxo-morpholin-4-yl]-5-(3,3-dimethyl-but-1-ynyl)-thiophene-2-carboxylic acid] | 1 | ≤ 100 | 
6 | CCC(C)S(=O)(=O)N1CC(=O)N(c2cc(-c3ccccc3)sc2C(=O)O)C(C2CCCCC2)C1 (stereo not shown) [Compound 45, 3-[4-(Butane-2-sulfonyl)-2-cyclohexyl-6-oxo-piperazin-1-yl]-5-phenyl-thiophene-2-carboxylic acid] | 4900 |  | 100 to 5000
7 | CC(=O)Nc1ccc(S(=O)(=O)N2CC(=O)N(c3cc(-c4ccccc4)sc3C(=O)O)C(C3CCCCC3)C2)cc1 (stereo not shown) [Compound 50, 3-[4-(4-Acetylamino-benzenesulfonyl)-2-cyclohexyl-6-oxo-piperazin-1-yl]-5-phenyl-thiophene-2-carboxylic acid] | 7 |  | 100 to 5000
8 | CC1CN(c2ccc(S(=O)(=O)N3CC(=O)N(c4cc(-c5ccccc5)sc4C(=O)O)C(C4CCCCC4)C3)cn2)CC(C)O1 (stereo not shown) [Compound 87, 3-{2-Cyclohexyl-4-[6-(2,6-dimethyl-morpholin-4-yl)-pyridine-3-sulfonyl]-6-oxopiperazin-1-yl}-5-phenyl-thiophene-2-carboxylic acid] | 5 | ≤ 100 | 
9 | CC(C)N1CCN(c2ccc(S(=O)(=O)N3CC(=O)N(c4cc(-c5ccccc5)sc4C(=O)O)[C@H](C4CCCCC4)C3)cn2)CC1 [Compound 160, 3-{(R)-2-Cyclohexyl-4-[6-(4-isopropyl-piperazin-1-yl)-pyridine-3-sulfonyl]-6-oxo-piperazin-1-yl}-5-phenyl-thiophene-2-carboxylic acid] | 1 | ≤ 100 | 
10 | Cc1ccccc1S(=O)(=O)N1CC(=O)N(c2cc(-c3ccccc3)sc2C(=O)O)C(C2CCCCC2)C1 (stereo not shown) [Compound 58, 3-[2-Cyclohexyl-6-oxo-4-(toluene-2-sulfonyl)-piperazin-1-yl]-5-phenyl-thiophene-2-carboxylic acid] | 88 |  | 100 to 5000
11 | CCn1cc(S(=O)(=O)N2CC(=O)N(c3cc(C#CC(C)(C)C)sc3C(=O)O)[C@H](C3CCCCC3)C2)cn1 [Compound 275, 3-[(R)-2-Cyclohexyl-4-(1-ethyl-1H-pyrazole-4-sulfonyl)-6-oxo-piperazin-1-yl]-5-(3,3-dimethyl-but-1-ynyl)-thiophene-2-carboxylic acid] | 2 | ≤ 100 | 
